Assay results published in paper PMC10741037, “A Peptoid-Chelator Selective to Cu^2+ That Can Extract Copper from Metallothionein-2 and Lead to the Production of ROS” (Antioxidants, 2023).

Test: Kinetics of ascorbate consumption assay (ROS production)
Format: biochemical
Settings: MT-2 + Cu2+ + Asc; [MT-2] = 1.6 μM, [Cu2+] = 9 μM, [Asc] = 100 μM, HEPES 10 mM pH = 7.4, absorbance at 265 nm
Procedure: Reagents, except the peptoid and protein, were commercially available and were used as received. All the solutions were prepared in milliQ water (resistance: 18.2 MΩ) immediately before experiments. A stock solution of HEPES buffer was prepared at 500 mm, pH = 7.4, and then diluted to 10 mM. Sodium ascorbate was prepared at 5 mm each day because of the quick degradation of the ascorbate. All pH values are given with a ±0.2 pH unit error. UV/Vis kinetics and ROS kinetic experiments were recorded with a spectrophotometer Agilent Cary 60 UV/Vis spectrophotometer (Agilent Technologies, Mulgrave, Australia), a double-beam, Czerny–Turner monochromator with external stirrer of cuvette holder, in 1 cm path-length quartz cuvettes, with 800 rpm stirring. The samples were prepared from stock solutions of MT-2, TB, Cu^2+, diluted to 1.6, 10, and 9 µM, respectively, in 10 mM HEPES solution, pH = 7.4. Ascorbate was diluted to 100 µM. […]
First, we investigated whether CuTB can produce ROS by itself. In a typical experiment, 1 equiv. of TB was mixed with 0.9 equiv. of Cu^2+ in HEPES buffer (10 mM, pH = 7.4) in a quartz cuvette under aerobic conditions, and after the formation of the metallopeptoid was confirmed by the stability of its UV/Vis spectrum, sodium ascorbate (Asc) was added to the cuvette and the changes in the absorbance at 265 nm were monitored by UV/Vis (ε = 14,500 M^−1 cm^−1). […]

CuMT-2: complex of metallothionein-2 (MT-2) with 6 equiv. of Cu2+
ascorbate consumption / redox activity: redox silent
